pEC50: −log10 of the molar value. Where a name gives a salt, the structure may show the parent alone.

The test system of one data set is hepatocytes from rat. Nature of the data set: Conversion to compound (I) in rat hepatocytes. It counts as in vitro ADME. The following applies: 1 μg/mL, 37° C., 0.25-60 minutes, FIG. 7a. Summed up:
(§1)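 Hepatocyte suspensions (1×10^6 viable cells/mL) were incubated in duplicate with test item at 37° C., 0.1% DMSO final. Samples taken at 0.25, 5, 15, 30 and 60 min were stabilised with ice-cold ascorbic acid, saccharic acid 1.4-lactone/citric acid and formic acid. Formed (I) was quantified by LC-MS/MS (MRM) against analytical standards.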

Another data set has as its target human D2 receptor (Homo sapiens (Human), UniProt P14416). The data set can be described thus: Dopamine D2 receptor agonism, calcium mobilization assay. The following applies: for Emax: normalized to 1 μM dopamine = 100%. The class given is cell-based. How it is done: Dopamine D2 receptor agonism was measured using a calcium mobilization assay protocol developed by HD Biosciences (China). Briefly, HEK293/G15 cells expressing human D2 receptor were plated at a density of 15000 cells/well in clear-bottomed, Matrigel-coated 384-well plates and grown for 24 hrs at 37° C. in the presence of 5% CO2. The cells were incubated with calcium-sensitive fluorescent dye, Fluo8, for 60-90 minutes at 37° C. in the dark. Test compounds were prepared at 3-fold concentrated solution in 1×HBSS buffer with Ca^2+ and Mg^2+. Calcium Flux signal was immediately recorded after compounds were added from compound plate to cell plate at FLIPR (Molecular Devices). The fluorescence data were normalized to yield responses for no stimulation (buffer) and full stimulation (1 μM of dopamine) of 0% and 100% stimulation, respectively. Test compound potency (EC50) was estimated by nonlinear regression using the sigmoidal dose-response (variable slope) using Xlfit 4 (IDBS, Guildford, Surrey, UK, model 205). y=(A+((B−A)/(1+((C/x)^D)))) where y is the normalized ratio measurement for a given concentration of test compound, x is the concentration of test compound, A is the estimated efficacy at infinite compound dilution, and B is the maximal efficacy. C is the EC50 value and D is the Hill slope coefficient. EC50 estimates were obtained from independent experiment and the logarithmic average was calculated.
A general note: A change in cytosolic calcium serves as a functional read-out for many receptors and channels.

Data set [1] can be described thus: PK experiments in rats: plasma compound (I) after oral dosing of prodrugs. The following applies: Wistar rats, FIG. 2, doses equal to 287 μg/kg of compound (I). It counts as in vivo, Han Wistar rats. How it is done:
Plasma was placed on water-ice following collection. Final storage at approximately −70° C.
Mobile phase B: Acetonitrile. […] Flow rate 0.5 mL/min.
The rats had unrestricted access to the diet.
Mobile phase B: Acetonitrile+0.2% formic acid. […] Flow rate 0.3 mL/min.
Han Wistar rats were supplied by Envigo, UK. […] The rats received a standard laboratory diet Teklad 2014C. The rats had unrestricted access to the diet.

A short description of data set [2]: Conversion to compound (I) in fresh rat blood. The class given is in vitro ADME. The note with it: fresh blood 37° C., 1 μg/mL, 0-60 minutes, FIG. 8a. The method, then:
(§2) Conversion of (Id-ia), (Id-ib), (Id-iia) and (Id-iib) in human blood (average of 3 donors) and rat blood (average of 45 donors) to (I) was shown in fresh blood at 37° C. spiked with 1 μg/mL of (Id-ia), (Id-ib), (Id-iia) and (Id-iib) separately, (I) was measured at 0, 5, 15, 30 and 60 minutes in isolated plasma. Analysis method and Instrumentation as described in Examples 4 and 5 below in the section “Instrumentation used for analysis of compound (I) from dosing of compounds (Ic), (Id-ia), (Id-ib), (Id-iia), (Id-iib), (Id-iab) and (Id-iiab).”

A short description of data set [3]: Conversion to compound (I) in fresh human blood. The class given is in vitro ADME. The following applies: fresh blood 37° C., 1 μg/mL, 0-60 minutes, FIG. 8b. The method, then:
as §2

A further data set has as its target human 5-HT2B receptor (Homo sapiens (Human), UniProt P41595). Nature of the data set: 5-HT2B radioligand binding assay ([125I](±)DOI). The following applies: 0.2 nM [125I](±)DOI, read-out: 5-HT2B binding affinity (% inhibition of control, specific binding at concentration indicated). The method, then:
Membrane homogenates prepared from CHO cells expressing the human 5HT2B receptor were incubated for 60 min at room temperature with 0.2 nM [125I](±)DOI (1-(4-iodo-2, 5-dimethoxyphenyl)propan-2-amine) in the absence or presence of the test compound in a buffer containing 50 mM Tris-HCl (pH 7.4), 5 mM MgCl2, 10 μM pargyline and 0.1% ascorbic acid. Nonspecific binding is determined in the presence of 1 μM (±)DOI. Following incubation, the samples were filtered rapidly under vacuum through glass fiber filters (GF/B, Packard) presoaked with 0.3% polyethyleneimine (PEI) and rinsed several times with ice-cold 50 mM Tris-HCl using a 96-sample cell harvester (Unifilter, Packard). The filters were dried and counted for radioactivity in a scintillation counter (Topcount, Packard) using a scintillation cocktail (Microscint 0, Packard). The results are expressed as a percent inhibition of the control radioligand specific binding. The standard reference compound was (±)DOI, which was tested in each experiment at several concentrations to obtain a competition curve from which its IC50 is calculated.

The test system of another data set is hepatocytes from human. Nature of the data set: Conversion to compound (I) in human hepatocytes. The class given is in vitro ADME. The note with it: 1 μg/mL, 37° C., 0.25-60 minutes, FIG. 7b. Summed up: as §1

Chain of human D2 receptor (P14416 whole entry): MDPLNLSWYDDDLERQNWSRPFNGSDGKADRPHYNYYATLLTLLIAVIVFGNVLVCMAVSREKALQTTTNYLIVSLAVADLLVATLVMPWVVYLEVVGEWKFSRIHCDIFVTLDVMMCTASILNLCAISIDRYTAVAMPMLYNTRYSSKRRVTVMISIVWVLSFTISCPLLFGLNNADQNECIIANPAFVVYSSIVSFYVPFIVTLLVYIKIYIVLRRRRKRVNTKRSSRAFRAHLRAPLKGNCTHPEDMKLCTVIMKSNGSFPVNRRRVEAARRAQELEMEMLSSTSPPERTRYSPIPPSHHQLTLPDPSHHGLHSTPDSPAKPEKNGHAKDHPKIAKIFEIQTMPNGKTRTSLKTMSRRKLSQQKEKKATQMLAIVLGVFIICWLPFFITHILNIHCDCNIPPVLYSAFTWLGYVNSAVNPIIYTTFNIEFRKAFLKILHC
Chain of human 5-HT2B receptor (P41595 whole entry): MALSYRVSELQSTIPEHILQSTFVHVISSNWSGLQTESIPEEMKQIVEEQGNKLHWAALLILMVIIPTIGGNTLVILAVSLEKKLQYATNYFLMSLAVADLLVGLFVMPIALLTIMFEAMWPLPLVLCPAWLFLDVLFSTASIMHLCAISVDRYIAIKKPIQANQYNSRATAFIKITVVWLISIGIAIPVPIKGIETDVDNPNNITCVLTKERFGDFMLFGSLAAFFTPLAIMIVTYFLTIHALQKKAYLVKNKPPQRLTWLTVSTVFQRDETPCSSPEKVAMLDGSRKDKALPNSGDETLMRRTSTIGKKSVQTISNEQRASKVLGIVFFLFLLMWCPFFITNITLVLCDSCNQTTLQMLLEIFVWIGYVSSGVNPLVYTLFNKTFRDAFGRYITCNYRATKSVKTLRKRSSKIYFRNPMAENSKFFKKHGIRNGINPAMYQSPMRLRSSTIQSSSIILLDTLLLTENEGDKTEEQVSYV

Broadly, the Emax is the maximal effect, on the per cent scale that the assay sets. `CCCN1CCC[C@@H]2Cc3c(ccc(O)c3O[C@@H]3O[C@H](C(=O)O)[C@@H](O)[C@H](O)[C@H]3O)C[C@H]21` [(Id-ia), (2S,3S,4S,5R,6S)-3,4,5-trihydroxy-6-(((4aR,10aR)-7-hydroxy-1-propyl-1,2,3,4,4a,5,10,10a-octahydrobenzo[g]quinolin-6-yl)oxy)tetrahydro-2H-pyran-2-carboxylic acid]: the “conversion to compound (I) in rat hepatocytes” value with hepatocytes from rat is on record as “time dependent conversion to compound (I)”. Also, the Emax on human D2 receptor was 92%. In addition, the “plasma profile of compound (I) after oral dosing (in words)” value in data set [1] was “slower absorption rate avoiding rapid peak concentrations accompanied by a sustained exposure of compound (I) in plasma”. In addition, the “conversion to compound (I) in rat blood” value in data set [2] is on record as “time dependent conversion to compound (I)”. Further, the “conversion to compound (I) in human blood” value in data set [3] is “time dependent conversion to compound (I)”. The inhibition at 10 µM on human 5-HT2B receptor was -25%. For the same molecule, the “conversion to compound (I) in human hepatocytes” value in the data set with hepatocytes from human is reported as “time dependent conversion to compound (I)”.
The term pEC50 denotes the negative decadic logarithm of the EC50, by convention in mol/L. For the molecule `CCCN1CCC[C@@H]2Cc3c(ccc(O)c3OS(=O)(=O)O)C[C@H]21` [(Id-iia), (4aR,10aR)-7-hydroxy-1-propyl-1,2,3,4,4a,5,10,10a-octahydrobenzo[g]quinolin-6-yl hydrogen sulfate], the “conversion to compound (I) in rat hepatocytes” value in the data set with hepatocytes from rat was “time dependent conversion to compound (I)”. For the same molecule, on human D2 receptor (HEK293/G15 cells expressing human D2 receptor, calcium flux), the pEC50 is under 4.52. The Emax on human D2 receptor was 48%. The “plasma profile of compound (I) after oral dosing (in words)” value in data set [1] is reported as “slower absorption rate avoiding rapid peak concentrations accompanied by a sustained exposure of compound (I) in plasma”. The “conversion to compound (I) in rat blood” value in data set [2] was “time dependent conversion to compound (I)”. Besides, the “conversion to compound (I) in human blood” value in data set [3] is reported as “time dependent conversion to compound (I)”. Besides, at human 5-HT2B receptor, the inhibition at 10 µM was found to be 6%. For the same molecule, the “conversion to compound (I) in human hepatocytes” value with hepatocytes from human was “time dependent conversion to compound (I)”.

(Values after patent US10729710B2, “Catecholamine prodrugs for use in the treatment of Parkinson's disease” (H. Lundbeck A/S, priority 2017, dated 2020).)
